According to paper PMC9063446, “Biochemical and in silico identification of the active site and the catalytic mechanism of the circadian deadenylase HESPERIN” (FEBS Open Bio, 2022):

T1: AtHESPERIN (Hesperin) (Arabidopsis thaliana, UniProt A8MS41)
T1 construct: gene CCR4-4; HESPERIN cDNA in pATHRA (pET-15b derived), E. coli BL21-GOLD(DE3); N-terminal 6xHis tag cut by HRV 3C protease; SEC; oligomer, mainly trimer (~150 kDa)
T1 sequence (A8MS41 1-417): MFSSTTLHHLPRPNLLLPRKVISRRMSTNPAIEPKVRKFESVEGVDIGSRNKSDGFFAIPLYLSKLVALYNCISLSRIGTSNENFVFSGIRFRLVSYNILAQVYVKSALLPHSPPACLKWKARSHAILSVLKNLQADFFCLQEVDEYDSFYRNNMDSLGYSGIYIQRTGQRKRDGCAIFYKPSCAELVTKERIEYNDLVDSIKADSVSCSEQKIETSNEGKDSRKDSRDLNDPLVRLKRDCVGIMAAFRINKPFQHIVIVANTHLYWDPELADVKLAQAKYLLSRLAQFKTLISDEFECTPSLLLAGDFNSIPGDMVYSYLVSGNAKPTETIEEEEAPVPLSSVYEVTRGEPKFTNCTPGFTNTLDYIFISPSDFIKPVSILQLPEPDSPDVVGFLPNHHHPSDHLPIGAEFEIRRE

B1: AtHESPERIN (enzyme, Arabidopsis thaliana, UniProt A8MS41 1-417, looked up)
chain: T1 sequence (A8MS41 1-417)
notes: AtHESPERIN (Hesperin), circadian EEP deadenylase of Arabidopsis thaliana, UniProtKB A8MS41; cDNA cloned in pATHRA behind 6x His tag and HRV 3C site; The His tag was removed with HRV 3C protease (site LEVLFQ/GP), so residues of the site may be left at the N-terminus; It calls the oligomer mainly trimeric; also called native AtHESPERIN; wild-type AtHESPERIN; source: E. coli BL21-GOLD (DE3), …

Tests used:
AtHESPERIN (Hesperin) = molecular target: T1, AtHESPERIN (Hesperin); test: colorimetric methylene blue poly(A) degradation assay, modified Hanes-Woolf plot; type: biochemical; details: substrate poly(A); Buffer R with 2 mM MgCl2, 0.1 M NaCl, pH 6.5, 25 °C; competitive, reaction product
[1] = molecular target: the molecule itself; test: native gel or EMSA; 7% PAGE under nondenaturing conditions for acidic proteins; 16 ug AtHESPERIN incubated with urea, up to 4 M; BSA and urease as mass standards

Molecule | Ki (AtHESPERIN (Hesperin)) [µM] | stoichiometry N [1]
Nc1ncnc2c1ncn2[C@@H]1O[C@H](COP(=O)(O)O)[C@@H](O)[C@H]1O [AMP] | 1.8 ± 0.2 | 
B1 |  | 3
